Experimental findings from patent publication US4681091A, “Combination modality cancer therapy” (priority 1985, dated 1987) are described below.

Where two headings read alike, the source gives them in different places.

A word on the viability: it is a read-out of living cells in per cent, often relative to untreated cells.

The test system of data set [1] is bacterial cells (salmonella typhimurium TM677).
The next data set can be described thus: in vitro. As to conditions: salmonella typhimurium tm677, N/No (toxicity).
Data set [2] relates to bacterial cells (salmonella typhimurium TM677). As to conditions: salmonella typhimurium tm677, 0 h, 200 µM.
In data set [3] the test system is mammalian cell culture. The data set can be described thus: cells. An excerpt: Immediately after addition of the drug to the culture media, the petri dishes containing the cells are placed into aluminium chambers which are then degassed and purged with nitrogen to produce hypoxia. The degassing/back-filling cycle is repeated two times and the cells are irradiated with cobalt-60 gamma rays in the aluminium chambers at the end of the two hours. Control, un-irradiated cell cultures are exposed to the drug in various concentrations to assess drug cytotoxicity. Immediately following irradiation the cells are removed from the petri dishes using trypsin enzyme for 6 minutes, pipetted into single cell suspensions, and serially diluted for subculturing in triplicate petri dishes containing 5 cc of fresh culture media without the test compound. These dishes are incubated in 5% CO2 at 37° C. for 10 days and, following staining, the colonies are counted to produce survival curves (surviving fraction of cells versus compound concentration or radiation dose). As in the bacterial radiosensitization tests, baseline curves for irradiation of the mammalian cells under oxic and hypoxic conditions in the absence of the compound are also determined to allow a quantitative estimation of the efficiency of the compound in sensitizing the cells to radiation-induced killing by deriving enhancement ratios.
In FIG. 3, the dotted line represents the standard or average reported misonidazole response. The symbols " " and ` ` represent experimental misonidazole response and the experimental Rh compound response respectively.

Data set [4] deals with mammalian cell culture. The following applies: for 1 hour Aerobic Cytotoxicity: aerobic mammalian cell culture; for 1 hour hypoxic cytotoxicity: hypoxic mammalian cell culture.

Regarding `O=[N+]([O-])[Rh-3]([N+](=O)[O-])([N+](=O)[O-])([N+](=O)[O-])([N+](=O)[O-])[N+](=O)[O-].[K+].[K+].[K+]` [Compound 2, potassium hexanitrorhodium (III)], the “improvement for cell-kill (N/No), sensitised vs unsensitised cells” value in data set [1] is “dramatic improvement for cell-kill (N/No)”. Also, in “in vitro”, the viability at 0 h, 200 µM was determined as 100% and the viability at 0.5 h, 200 µM was 105%. Besides, the “N/No (toxicity)” value in data set [2] worked out at 1.
For the molecule `NCCN.NCCN.[Cl-].[Cl-].[Cl-].[Cl-].[Cl-].[Cl-].[Cl-].[Cl-].[NH3+]CC[NH3+].[Rh+3].[Rh+3]` [[RhenCl4]2 [enH2]], the “aerobic (oxic) response” value with mammalian cell culture [3] (FIG. 3, aerobic (oxic)) is “effectively zero”. Further, the “effectiveness compared with misonidazole” value in the data set with mammalian cell culture [3] (from concentrations giving ser 1.6) was found to be 75%. Moreover, the “1 hour Aerobic Cytotoxicity” value is reported as 78.0% in the data set on mammalian cell culture [4] (100 µM), 61.0% in the data set with mammalian cell culture [4] (1000 µM) and 6.1% in the data set with mammalian cell culture [4] (10000 µM). Also, the “1 hour hypoxic cytotoxicity” value in the data set on mammalian cell culture [4] (100 µM) is 95%; in the data set on mammalian cell culture [4] (330 µM), 83.6%; in the data set on mammalian cell culture [4] (1000 µM), 62.7%; in the data set with mammalian cell culture [4] (3300 µM), 22%; in the data set with mammalian cell culture [4] (10000 µM), < 1%.
`COCC(O)Cn1ccnc1[N+](=O)[O-]` (stereo not shown) [misonidazole, reference compound]: the EC (SER 1.6) in the data set on mammalian cell culture [3] (read-out: C1.6: concentration required to give an ser (sensitizer enhancement ratio) of 1.6) amounted to 1500 µM.
On to `[O-2].[O-2].[O-2].[Rh+3].[Rh+3]` [rhodium oxide], for which the “toxicity, water solubility or sensitisation effect (combined statement)” value in data set [1] was “either too toxic, not soluble in water or failed altogether to show a sensitisation effect”.
Regarding `[Cl][Rh]([Cl])[Cl]` [rhodium trichloride], in data set [1], the “toxicity, water solubility or sensitisation effect (combined statement)” value was “either too toxic, not soluble in water or failed altogether to show a sensitisation effect”.
Still for that read-out and setting: the same measure for `CCCC[N+](CCCC)(CCCC)CCCC.[C-]#[O+].[C-]#[O+].[Cl-].[Cl-].[Rh+]` [tetra-n-butylammoniumdicarbonyldichlororhodium (I)]: “either too toxic, not soluble in water or failed altogether to show a sensitisation effect”.
For the molecule “dichlorobis (ethylenediamine) rhodium (III) [Compound 3]”, the “improvement for cell-kill (N/No), sensitised vs unsensitised cells” value in data set [1] is “dramatic improvement for cell-kill (N/No)”.
